# Entries after “also recorded” stand apart in the source; their conditions may differ.
# Experiments:
# [1] = test system: abdominal viscera; experiment: Peritonitis (adhesion and hardening of abdominal viscera); type: in vivo, mouse
# Method: (§1) The solutions of these compounds were prepared extemporaneously.
# As discussed above this problem seems to be linked to the presence of the 1,2-diaminocyclohexane ligand.
# [2] = Stability in sodium chloride solution; type: physicochemical; settings: 9% sodium chloride
# Method: This compound has an exceptionally high degree of solubility.
# as §1
smiles,measurement,setting,value
"NC1CCCCC1N.O=C([O-])CC(C(=O)[O-])C([O-])C(=O)[O-].[H+].[H+].[Pt+2] (stereo not drawn) [PHIC, cis-isocitrato (1,2-diaminocyclohexane) platinum (II)]",peritonitis,"[1]; healthy mice, i.p. injection",also observed in healthy mice
same,"occurrence of peritonitis in relation to the 1,2-diaminocyclohexane ligand",[1]; i.p.,"seems to be correlated with the presence of 1,2-diaminocyclohexane"
same,peritonitis / long-term toxic effect,[1]; i.v. administration,never encountered; also recorded: not observed
same,peritonitis,"[1]; tumour-bearing mice, i.p. treatment",most of the mice reaching 30 days of survival treatment with PHM and PHIC developed peritonitis; also recorded: causes peritonitis
same,change to chlorinated derivative in sodium chloride solution,[2],changing in 24 hours to a yellow chlorinated derivative which precipitates
